Measured values: US6974804B2, “Esters” (Unilever Home & Personal Care USA, division of Conopco, Inc., priority 2000, dated 2005)

Key:
Assay type in all cases: physicochemical
[1] = Visual assessment score (clarity of gel in 1 cm cuvette); conditions: for Clarity Visual (assessment score): scale −12 to 8
Excerpt: A gel contained within a 1 cm thick cuvette was placed directly on to a sheet of white paper on which 21 sets of figures where printed in black. The size and thickness of the figures varied systematically and were numbered from −12 (the largest, thickest set) through 0 to 8 (the smallest thinnest set) The score given to each gel was the highest numbered set which could be read clearly through the gel, the higher the number, the higher the clarity.

[2] = Light transmission at 580 nm (% T); conditions: 580 nm
Method: The translucency of a composition may be measured by placing a sample of standardised thickness in the light path of a spectrophotometer and measuring transmittance, as a percentage of light transmitted in the absence of the gel.
This test was carried out using a dual-beam spectrophotometer. The sample of composition was poured hot into a 4.5 ml cuvette made of poly(methyl-methacrylate) (PMMA) and allowed to cool to an ambient temperature of 20-25° C. Such a cuvette gives a 1 cm thickness of composition. […] A transmittence measured at any temperature in the range from 20-25° C. is usually adequately accurate, but measurement is made at 22° C. if more precision is required.

[3] = Gelling of water-immiscible cosmetic liquids in 96 well glass micro-titre plate; parameters: key: gel; g4: gel after overnight (18 hrs) storage at 4° C.; g22: gel after overnight (18 hrs) storage at 22° C.; sg: soft gel; sg22: soft gel after overnight (18 hrs) storage at 22° C.; solution; *: the test at 4° C. was not carried out; conditions: for gelling of ISA: 150° C. 2.5 hours, cooled to ambient
Method: In this Example, various samples of esterified cellobiose prepared as in Example 1 or 2 above, were used to gel water-immiscible cosmetic liquids, in accordance with the procedure given below, in which a large number of gels can be prepared simultaneously.
The samples were tested in a 96 well (8×12 rows) glass micro-titre plate. […] About 0.01 or 0.02 g of each esterified cellobiose material was placed into 8 consecutive wells in a single row, so that each well contained approximately 5% or 10% of the cellobiose ester. The balance in each well comprised the cosmetic liquid by addition of approximately 0.2 g of the respective liquid to each cell. A glass lid was placed on top of the plate. The plate was carefully placed in a thermostatically controlled fan-assisted oven set at 150° C. for 2.5 hours. The plate was removed from the oven and allowed to cool naturally to ambient laboratory temperature. The contents of the wells were assessed at the end of the cooling period, by visual inspection and by poking the contents of each well with a micro-spatula. The plates were stored at […] for 18 hours and the contents inspected, and further stored for 18 hours at 4° C. and inspected for a third time. The results obtained in the tests are summarised in Table 5 below, in which the legend is as follows: […]

[4] = Stability testing of gels: crystal growth visible by eye on storage at 37° C.
Method: Gels were made up using 10% structurant in a 60:40 mixture of Hydrogenated Polyisobutene (Panalene L14E):DC245. The gels, in sealed glass bottles, were left to stand for 18 hrs at room temperature, after which they were transferred to an oven thermostatically controlled to 37° C. Samples were checked periodically for signs of crystal growth visible by eye. REF1 is cellobiose octanonanoate.
Gels were made up and tested in accordance with the procedure in Example 6, as such or modified by employing a weight ratio of 9% of REF1 and 1% of an additional structurant as specified in Table 13 below.
The test procedure of Example 9 was repeated, but using ACB structurant REF2 alone as the structurant or to which a CHME structurant was added.

[5] = 9% REF2 and 1% of the specified ester in 60:40 hydrogenated polydecene:DC245
[6] = 60:40 hydrogenated polydecene:DC245 gelled with 9% REF2 and 1% of the specified cellobiose ester
[7] = 5% cellobiose ester in Fluid AP
[8] = 5% cellobiose ester in Mineral oil
[9] = 5% cellobiose ester in Polydecene
[10] = 10% cellobiose ester in Fluid AP
[11] = 10% cellobiose ester in Mineral oil
[12] = 10% cellobiose ester in Polydecene
[13] = 9% REF4 plus 1% of the named material in 60:40 hydrogenated polydecene:DC245
[14] = 9% REF4 plus 1% of the named material

Compound	Clarity Visual (assessment score) [1, 5]	Clarity Visual (appearance) [1, 6]	Clarity % T [2, 5] [%]	gelling of DC556 ([3]; 5% cellobiose ester in DC556)	gelling of Fluid AP [3, 7]	gelling of IPM ([3]; 5% cellobiose ester in IPM)	gelling of ISA ([3]; 5% cellobiose ester in ISA)	gelling of Mineral oil [3, 8]	gelling of Polydecene [3, 9]	gelling of DC556 ([3]; 10% cellobiose ester in DC556)	gelling of Fluid AP [3, 10]	gelling of IPM ([3]; 10% cellobiose ester in IPM)	gelling of ISA ([3]; 10% cellobiose ester in ISA)	gelling of Mineral oil [3, 11]	gelling of Polydecene [3, 12]	Clarity Visual (appearance) [1, 13]	Clarity Visual (assessment score) [1, 14]	Clarity % T [2, 14] [%]	also measured
CCCCCCCCC(=O)OCC1OC(OC2C(COC(=O)CCCCCCCC)OC(OC(=O)c3ccc4ccccc4c3)C(OC(=O)CCCCCCCC)C2OC(=O)CCCCCCCC)C(OC(=O)CCCCCCCC)C(OC(=O)CCCCCCCC)C1OC(=O)CCCCCCCC (mixture of isomers) [Ex 1.4]	slight haze >8	transparent/	38	gel	gel	sol	g22	g22	g22	gel	gel	sol	g22	g22	gel				gelling of Finsolv TN ([3]; 5% cellobiose ester in Finsolv TN): sol; gelling of Finsolv TN ([3]; 10% cellobiose ester in Finsolv TN): sol
CCCCCCCCCCCCCCCC(=O)OC1OC(COC(=O)CCCCCCCC)C(OC2OC(COC(=O)CCCCCCCC)C(OC(=O)CCCCCCCC)C(OC(=O)CCCCCCCC)C2OC(=O)CCCCCCCC)C(OC(=O)CCCCCCCC)C1OC(=O)CCCCCCCC (mixture of isomers) [Ex 1.9]	> 8	transparent	45	gel	gel	g4	g22	g22	gel			g4							
CCCCCCCCCC(=O)OCC1OC(OC2C(COC(=O)CCCCCCCCC)OC(OC(=O)c3ccccc3)C(OC(=O)CCCCCCCCC)C2OC(=O)CCCCCCCCC)C(OC(=O)CCCCCCCCC)C(OC(=O)CCCCCCCCC)C1OC(=O)CCCCCCCCC (mixture of isomers) [Ex 2.1]				gel	gel		gel	gel	gel	gel	gel		gel	gel	gel	translucent	−1	9.53	
CCCCCCCCCC(=O)OCC1OC(OC2C(COC(=O)CCCCCCCCC)OC(OC(=O)c3ccc4ccccc4c3)C(OC(=O)CCCCCCCCC)C2OC(=O)CCCCCCCCC)C(OC(=O)CCCCCCCCC)C(OC(=O)CCCCCCCCC)C1OC(=O)CCCCCCCCC (mixture of isomers) [Ex 2.7]				gel	gel		gel	gel	gel	gel	gel		gel	gel	gel	translucent	0	8.7	
CCCCCCCCCC(=O)OCC1OC(OC2C(COC(=O)CCCCCCCCC)OC(OC(=O)c3ccc(-c4ccccc4)cc3)C(OC(=O)CCCCCCCCC)C2OC(=O)CCCCCCCCC)C(OC(=O)CCCCCCCCC)C(OC(=O)CCCCCCCCC)C1OC(=O)CCCCCCCCC (mixture of isomers) [Ex 2.9]				gel	gel		g22	sg	gel	gel	gel		gel	gel	gel	translucent	−3	7.7	
CCCCCCCCCC(=O)OCC1OC(OC2C(COC(=O)CCCCCCCCC)OC(OC(=O)C3CCCCC3)C(OC(=O)CCCCCCCCC)C2OC(=O)CCCCCCCCC)C(OC(=O)CCCCCCCCC)C(OC(=O)CCCCCCCCC)C1OC(=O)CCCCCCCCC (mixture of isomers) [Ex 2.10]				gel	gel		g22	gel	gel	gel	gel		gel	gel	gel	translucent	−5	5.9	
CCCCCCCCC(=O)OCC1OC(O)C(OC(=O)CCCCCCCC)C(OC(=O)CCCCCCCC)C1OC1OC(COC(=O)CCCCCCCC)C(OC(=O)CCCCCCCC)C(OC(=O)CCCCCCCC)C1OC(=O)CCCCCCCC (mixture of isomers) [REF 5, reference compound]	translucent 4	transparent/	31																
CCCCCCCCCC(=O)OCC1OC(O)C(OC(=O)CCCCCCCCC)C(OC(=O)CCCCCCCCC)C1OC1OC(COC(=O)CCCCCCCCC)C(OC(=O)CCCCCCCCC)C(OC(=O)CCCCCCCCC)C1OC(=O)CCCCCCCCC (mixture of isomers) [REF 6, reference compound]																opaque	< −12	0.8	
cellobiose heptanonanoate monocyclohexanoate [Ex 1.10]	slight haze 6	transparent/	42	gel	gel	sol	g22	gel	gel	gel	gel	g4	gel	gel	gel				Visual ([1]; gel in 60:40 w/w Silkflo 364:DC245, score scale −12 to 8): >8; Observations ([4]; 9% of REF1 and 1% of additional structurant, after 12 days at 37° C.): No crystal growth after 12 days at 37 °C; Observation ([4]; 10% structurant in 60:40 Panalene L14E:DC245, after 17 days at 37° C.): No crystals after 17 days.; Observation ([4]; REF2 to which the CHME structurant was added, after 11 days at 37° C.): Some needle crystals on surface after 11; Observation ([4]; REF2 to which the CHME structurant was added, after 12 days at 37° C.): Some needle crystals in gel bulk after 12
